Converted amounts (≈) assume the structure as drawn.
Columns and labels:
Chitin synthase 2 = Chitin synthase 2 (Candida albicans, UniProt P30572); experiment: Inhibition of Chitin synthase 2 in Candida albicans (chs3del::hisG/chs3del::hisG) microsomes using UDP-[U14C]-GlcNac as substrate; design: species or system Microsome
[1] = test system: Meyerozyma guilliermondii; experiment: Antifungal activity against Candida guilliermondii incubated for 48 to 72 hrs by broth microdilution method; format: functional; details: time 48-72 hrs
Candida albicans [2] = experiment: Antifungal activity against Candida albicans ATCC 200955 incubated for 48 to 72 hrs by broth microdilution method; format: functional; details: time 48-72 hrs
Candida albicans [3] = experiment: Antifungal activity against Candida albicans ATCC 38248 incubated for 48 to 72 hrs by broth microdilution method; format: functional; details: time 48-72 hrs
Candida albicans [4] = experiment: Antifungal activity against Candida albicans ATCC 44373 incubated for 48 to 72 hrs by broth microdilution method; format: functional; details: time 48-72 hrs
Pichia kudriavzevii [5] = experiment: Antifungal activity against Candida krusei incubated for 48 to 72 hrs by broth microdilution method; format: functional; details: time 48-72 hrs
Chitin synthase 1 = Chitin synthase 1 (Candida albicans, UniProt P23316); experiment: Inhibition of Chitin synthase 1 in Candida albicans (chs3del::hisG/chs3del::hisG) microsomes using UDP-[U14C]-GlcNac as substrate; design: species or system Microsome
Candida albicans [6] = experiment: Antifungal activity against Candida albicans ATCC 10231 incubated for 48 to 72 hrs by broth microdilution method; format: functional; details: time 48-72 hrs
Candida albicans [7] = experiment: Antifungal activity against Candida albicans ATCC 26278 incubated for 24 hrs by serial dilution method; format: functional
Candida albicans [8] = experiment: Antifungal activity against Candida albicans ATCC 10261 incubated for 24 hrs by serial dilution method; format: functional
[9] = Inhibition of Candida albicans glucosamine-6-phosphate synthase by Elson-Morgan method
Candida albicans [10] = experiment: Antifungal activity against Candida albicans FP622 by agar dilution method; format: functional
Candida albicans [11] = experiment: Antifungal activity against Candida albicans FP615 by agar dilution method; format: functional
Candida albicans [12] = experiment: Antifungal activity against Candida albicans FP616 by agar dilution method; format: functional
Candida parapsilosis [13] = experiment: Antifungal activity against Candida parakrusei FP586 by agar dilution method; format: functional; details: Lodderomyces parapsilosis
Pichia kudriavzevii [14] = experiment: Antifungal activity against Candida krusei FP585 by agar dilution method; format: functional
Candida tropicalis = experiment: Antifungal activity against Candida tropicalis FP583 by agar dilution method; format: functional
Candida albicans [15] = experiment: Antifungal activity against Candida albicans FP614 by agar dilution method; format: functional
[16] = Inhibition of Saccharomyces cerevisiae CTS1 incubated for 70 mins by fluorescence method
Endochitinase A1 = Endochitinase A1 (Aspergillus fumigatus, UniProt Q873Y0); experiment: Inhibition of Aspergillus fumigatus chiA1 (Arg28 to His337) expressed in Pichia pastoris incubated for 70 mins using 4MU-NAc3 as substrate by fluorescence method
Candida albicans [17] = experiment: Antifungal activity against Candida albicans ATCC 10231 by CLSI-based serial dilution method; format: functional
[18] = Inhibition of Candida albicans GFA1 using D-Fru6P and L-glutamine as substrate by absorbance method
[19] = Half life in Beagle dog at 1.4 mg/kg, iv measured up to 72 hrs by LC-MS/MS analysis; format: ADME, organism-based, Canis lupus familiaris; details: in vivo
[20] = Half life in human at 50 mg by liquid chromatography-tandem mass spectrometry method; format: ADME; details: in vivo
[21] = Inhibition of Candida albicans GFA1 using D-Fru6P and L-glutamine as substrate incubated for 30 mins by Elson-Morgan method
Pichia kudriavzevii [22] = experiment: Antifungal activity against Candida krusei DSM 6128 by CLSI-based serial dilution method; format: functional
Nakaseomyces glabratus = experiment: Antifungal activity against Candida glabrata DSM 11226 by CLSI-based serial dilution method; format: functional
[23] = Antifungal activity against Candida arborea KKP319 by CLSI-based serial dilution method; format: functional
Aspergillus fumigatus = experiment: Antifungal activity against Aspergillus fumigatus MF5668 by CLSI method; format: functional
Candida albicans [24] = experiment: Antifungal activity against Candida albicans Ca1055 by CLSI method; format: functional
Candida parapsilosis [25] = experiment: Antifungal activity against Candida parapsilosis ATCC22019 by CLSI method; format: functional; details: Lodderomyces parapsilosis
Candida albicans [26] = experiment: Antifungal activity against Candida albicans Ca2323/ORF6.945 by CLSI method; format: functional

Sequence of Chitin synthase 2 (P30572 whole entry): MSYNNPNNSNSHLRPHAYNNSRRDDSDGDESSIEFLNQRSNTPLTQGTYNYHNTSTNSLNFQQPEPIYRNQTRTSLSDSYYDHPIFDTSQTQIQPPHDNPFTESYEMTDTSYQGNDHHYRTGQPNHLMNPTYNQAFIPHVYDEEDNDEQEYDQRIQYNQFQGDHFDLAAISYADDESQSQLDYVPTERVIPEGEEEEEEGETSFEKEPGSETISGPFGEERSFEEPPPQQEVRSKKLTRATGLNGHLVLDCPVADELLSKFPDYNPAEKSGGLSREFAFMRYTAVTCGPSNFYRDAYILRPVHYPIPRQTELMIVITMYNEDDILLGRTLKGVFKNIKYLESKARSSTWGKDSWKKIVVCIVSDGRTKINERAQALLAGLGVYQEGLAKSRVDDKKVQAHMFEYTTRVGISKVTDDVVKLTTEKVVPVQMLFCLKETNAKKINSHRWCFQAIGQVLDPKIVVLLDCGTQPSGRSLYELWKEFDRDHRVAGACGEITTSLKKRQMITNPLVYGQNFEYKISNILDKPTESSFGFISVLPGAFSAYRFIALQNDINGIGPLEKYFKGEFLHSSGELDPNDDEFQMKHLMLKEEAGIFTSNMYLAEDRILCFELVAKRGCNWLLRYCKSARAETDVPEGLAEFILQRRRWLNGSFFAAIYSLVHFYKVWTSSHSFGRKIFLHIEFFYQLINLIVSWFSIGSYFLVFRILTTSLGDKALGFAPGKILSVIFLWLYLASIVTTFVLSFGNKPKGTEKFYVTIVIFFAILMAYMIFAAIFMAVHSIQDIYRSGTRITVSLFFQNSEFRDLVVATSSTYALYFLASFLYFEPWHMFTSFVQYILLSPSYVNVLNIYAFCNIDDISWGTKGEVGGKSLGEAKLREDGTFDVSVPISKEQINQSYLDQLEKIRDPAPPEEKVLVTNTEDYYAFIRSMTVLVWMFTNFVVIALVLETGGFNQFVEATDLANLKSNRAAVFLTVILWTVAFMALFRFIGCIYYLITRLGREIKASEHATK
Sequence of Chitin synthase 1 (P23316 whole entry): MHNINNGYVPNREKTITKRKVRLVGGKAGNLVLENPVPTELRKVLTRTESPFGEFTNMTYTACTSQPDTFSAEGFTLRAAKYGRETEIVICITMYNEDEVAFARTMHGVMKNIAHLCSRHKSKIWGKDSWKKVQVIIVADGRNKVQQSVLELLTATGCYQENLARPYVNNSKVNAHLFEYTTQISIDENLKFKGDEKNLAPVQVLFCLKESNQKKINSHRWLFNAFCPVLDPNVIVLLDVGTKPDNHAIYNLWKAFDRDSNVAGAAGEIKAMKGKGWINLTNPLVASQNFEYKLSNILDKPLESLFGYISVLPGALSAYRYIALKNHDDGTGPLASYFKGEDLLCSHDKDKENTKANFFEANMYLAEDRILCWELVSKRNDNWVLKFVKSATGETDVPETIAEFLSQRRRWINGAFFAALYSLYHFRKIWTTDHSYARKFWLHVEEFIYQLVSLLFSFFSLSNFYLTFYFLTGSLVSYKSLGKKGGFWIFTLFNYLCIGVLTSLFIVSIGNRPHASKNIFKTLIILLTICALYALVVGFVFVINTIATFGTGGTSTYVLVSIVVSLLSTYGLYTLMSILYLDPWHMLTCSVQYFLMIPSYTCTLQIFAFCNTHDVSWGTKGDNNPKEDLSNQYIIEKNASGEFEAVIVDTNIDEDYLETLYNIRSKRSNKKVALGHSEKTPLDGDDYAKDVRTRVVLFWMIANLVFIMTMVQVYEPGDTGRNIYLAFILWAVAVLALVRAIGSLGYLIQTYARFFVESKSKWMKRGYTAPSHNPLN
Sequence of Endochitinase A1 (Q873Y0 whole entry): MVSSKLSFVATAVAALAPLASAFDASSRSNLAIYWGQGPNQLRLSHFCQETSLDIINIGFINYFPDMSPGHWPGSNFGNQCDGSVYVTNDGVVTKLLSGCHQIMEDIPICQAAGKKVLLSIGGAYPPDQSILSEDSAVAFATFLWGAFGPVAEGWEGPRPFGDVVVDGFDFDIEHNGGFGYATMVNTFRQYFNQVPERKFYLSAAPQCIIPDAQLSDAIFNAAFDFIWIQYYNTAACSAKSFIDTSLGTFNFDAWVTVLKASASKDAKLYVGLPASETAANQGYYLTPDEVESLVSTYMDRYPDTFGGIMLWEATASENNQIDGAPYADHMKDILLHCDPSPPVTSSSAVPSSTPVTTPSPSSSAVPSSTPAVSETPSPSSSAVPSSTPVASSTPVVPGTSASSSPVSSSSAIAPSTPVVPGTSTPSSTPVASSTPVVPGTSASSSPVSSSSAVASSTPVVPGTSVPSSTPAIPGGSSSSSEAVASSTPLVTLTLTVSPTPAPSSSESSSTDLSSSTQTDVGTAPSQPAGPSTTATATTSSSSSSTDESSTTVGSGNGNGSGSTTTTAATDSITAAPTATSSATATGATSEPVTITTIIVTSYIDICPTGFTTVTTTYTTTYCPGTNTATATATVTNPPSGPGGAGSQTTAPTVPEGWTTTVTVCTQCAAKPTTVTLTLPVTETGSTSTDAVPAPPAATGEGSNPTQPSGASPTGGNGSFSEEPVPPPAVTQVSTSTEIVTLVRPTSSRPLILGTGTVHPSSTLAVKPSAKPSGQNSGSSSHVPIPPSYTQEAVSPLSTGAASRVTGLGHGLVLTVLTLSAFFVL

Molecule COc1ccc2c(Cc3ccc(C(C)(C)C)cc3)c3[n+](cc2c1OC)CCc1cc2c(cc1-3)OCO2 has an IC50 (Chitin synthase 2) of 22 µM, an MIC [1] of 6.25 µg/mL and an MIC (Candida albicans [2]) of 1.56 µg/mL. For the same molecule, the MIC (Candida albicans [3]) was 1.56 µg/mL, the MIC (Candida albicans [4]) was 1.56 µg/mL and the MIC (Pichia kudriavzevii [5]) was 1.56 µg/mL. The IC50 (Chitin synthase 1) was 22 µM and the MIC (Candida albicans [6]) was 1.56 µg/mL.
Work on N[C@@H](CO)[C@@H](O)[C@H](O)[C@H](O)COP(=O)(O)O yielded an MIC (Candida albicans [7]) of 5000 µg/mL (≈ 19100 µM), an MIC (Candida albicans [8]) of 5000 µg/mL (≈ 19100 µM) and an IC50 [9] of 230 µM.
For CCC/C=C/C=C/[C@@H](O)C/C=C/C=C/C(=O)O[C@H]1[C@H](O[C@@H]2O[C@H](COC(=O)/C=C/C=C\CCCCC)[C@H](O)[C@H](O)[C@H]2O)[C@@H](CO)O[C@]2(OCc3cc(O)cc(O)c32)[C@@H]1O, the MIC (Candida albicans [10]) was 0.1 µg/mL (≈ 0.12 µM), the MIC (Candida albicans [11]) was 0.1 µg/mL (≈ 0.12 µM) and the MIC (Candida albicans [12]) was 0.1 µg/mL (≈ 0.12 µM). It also gave an MIC (Candida parapsilosis [13]) of 0.1 µg/mL (≈ 0.12 µM), an MIC (Pichia kudriavzevii [14]) of 0.1 µg/mL (≈ 0.12 µM) and an MIC (Candida tropicalis) of 0.1 µg/mL (≈ 0.12 µM). It also gave an MIC (Candida albicans [15]) of 0.1 µg/mL (≈ 0.12 µM).
For Cc1ccc(OCC(O)CNC2Cc3ccccc3C2)cc1C (stereo unspecified), the IC50 [16] was 2.4 µM and the IC50 (Endochitinase A1) was 9.2 µM.
In the case of CC(=O)N[C@H]1C(O)O[C@H](CS(=O)(=O)O)[C@@H](O)[C@@H]1O (stereo partly specified), the MIC (Candida albicans [17]) is reported as 500 µg/mL (≈ 1750 µM) and the IC50 [18] is reported as > 5000 µM.
With CC(=O)[O-].CCCCCOc1ccc(-c2ccc(-c3ccc(C(=O)N[C@H]4C[C@@H](O)[C@@H](NCC[N+](C)(C)C)NC(=O)[C@@H]5[C@@H](O)[C@@H](C)CN5C(=O)[C@H]([C@@H](C)O)NC(=O)[C@H]([C@H](O)[C@@H](O)c5ccc(O)cc5)NC(=O)[C@@H]5C[C@@H](O)CN5C(=O)[C@H]([C@@H](C)O)NC4=O)cc3)cc2)cc1 the half-life [19] was 53.1 h and the half-life [20] was > 130 h.
N[C@@H](CO)[C@@H](O)[C@H](O)[C@H](O)CS(=O)(=O)O gave an IC50 [21] of 130 µM and an MIC (Candida albicans [17]) of 1000 µg/mL (≈ 4080 µM).
In the case of COS(=O)(=O)C[C@H]1OC(O)[C@H](N)[C@@H](O)[C@@H]1O (stereo partly specified), the MIC (Pichia kudriavzevii [22]) is reported as > 4000 µg/mL, the MIC (Nakaseomyces glabratus) is reported as > 4000 µg/mL and the MIC (Candida albicans [17]) is reported as > 4000 µg/mL. The MIC [23] was > 4000 µg/mL.
In the case of Nc1ccccc1C(=O)OCC#CCOC(=O)c1ccccc1N, the MIC (Aspergillus fumigatus) is reported as 4 µg/mL (≈ 12.3 µM), the MIC (Candida albicans [24]) is reported as 4 µg/mL (≈ 12.3 µM) and the MIC (Candida parapsilosis [25]) is reported as 2 µg/mL (≈ 6.17 µM). The MIC (Candida albicans [26]) was 4 µg/mL (≈ 12.3 µM).
N[C@H]1C(O)O[C@H](CS(=O)(=O)O)[C@@H](O)[C@@H]1O (stereo partly specified) showed an MIC (Candida albicans [17]) of 1000 µg/mL (≈ 4110 µM) and an IC50 [18] of 80 µM.

— ChEMBL document CHEMBL4715849, “Recent Progress in the Discovery of Antifungal Agents Targeting the Cell Wall” (J Med Chem, 2020)
